# Measurements from patent publication US8058414B2, “Unnatural polymerase substrates that can sustain enzymatic synthesis of double stranded nucleic acids from a nucleic acid template and methods of use” (Life Technologies Corporation, priority 2008, dated 2011).
# Experiments:
# [1] = test system: Therminator (NEB) DNA polymerases; test: Evaluation of termination and mis-incorporation properties of γ-substituted-dNTP's (capillary electrophoresis of primer extension); format: biochemical; conditions: for termination properties (overall) / extension to the first correct base / consumption of the primer / further incorporation over the 2nd correct base (template 2) / activity / incorporation / mis-incorporation: 1 μM substrate; for extension to the first correct base / consumption of the primer: after 10 minutes; for further incorporation over the 2nd correct base (template 2): after 60 minutes
# Description: FIGS. 21A-21D are electropherograms showing the termination properties of γ-phosphate substituted dUTP analogs having an O-propargyl-S-substituent at the 5 position over a p(dA) template.
# [drawing 12] wherein R1 is a methyl group. The substrate concentration was 1 μM. FIG. 21A is an electropherogram for the primer. FIGS. 21B-D are the electropherograms after 10, 30 and 60 minutes of extension, respectively.
# FIGS. 22A-22D are electropherograms showing the mis-incorporation properties of γ-phosphate substituted dUTP analogs having an O-propargyl-S-substituent at the 5 position and a benzyl group as a γ-phosphate substituent. The nucleotide analog used in these experiments had the same general structure as set forth above in the description of FIGS. 21A-21D. For these experiments, all reactions were conducted for 10 minutes at a substrate concentration of 1 μM using Mg^2+. Two templates were used:
# General procedure for evaluation of termination properties of γ-substituted-dNTP's comprising silver ion cleavable linker arms attached to the base. All evaluations performed with Therminator (NEB) DNA polymerases were 3′ to 5′ exonuclease negative. Three types of templates were used in testing each substrate, where N denotes the complement of the base that is being evaluated for its termination properties, and the underlined portion of the target is the priming site: 1) a single correct base immediately after the priming site followed by incorrect bases; 2) two correct bases immediately after the priming site followed by incorrect bases; 3) each incorrect base followed by the correct base and then additional incorrect bases. The first two primers were used to show incorporation and termination, while the third set of templates was used to study mis-incorporation. All substrates were evaluated by capillary electrophoresis with analysis for extension of 0, 1, or 2 bases from a fluorescein labeled −21 M13 primer (the binding site of the primer corresponds to the underlined portion of the templates shown below).
# Templates were pre-hybridized to the primer at 2 μM final concentration. The final assay concentration of the primer/template hybrid was 40 nM.
# Unless otherwise noted, substrates were tested at 1 μM final concentration with 1 μL of the appropriate commercial enzyme at the concentration supplied by the manufacturer (usually 2-5 U/μL in 2× buffer composed of 40 mM Tris, pH 7.6, 10 mM DTT, 10 mM […] and 30 mM isocitrate). Each buffer was used at 1× in the final assay.
# Generally, assays were set up as 10 μL final volume and run at 65° C. The termination properties were evaluated at 10 minutes, 30 minutes and 1 hr. At the end of each reaction, […] of the reaction mix was pipetted into 25 μL of 0.5 M EDTA, to quench the reaction, in a streptavidin coated microtiter plate well (Applied Biosystems Part No. 4357279) to capture the biotin labeled template for purification of the primer. Plates were shaken at room temperature for 10 minutes. Excess fluid was discarded and the microtiter wells were washed 3× with 4×SSC containing 0.1% Tween 20. Plates were centrifuged briefly upside down to remove excess buffer. To remove the primer from the template, 20 μL of HiDi Formamide (Applied Biosystems Part No. 4311320) was added with size ladder (LIZ® dye-labeled SNPlex™ internal size standard) to each well. The plate was incubated at 50° C. with shaking for 10 minutes. […] of the HiDi Formamide solution was transferred to a 96 well plate (Applied Biosystems Part No. N8010560) and covered with a 96 well plate septa (Applied Biosystems Part No. 4315933). Samples were separated electrophoretically on an AB 3100XL with a 36 cm capillary with POP6™ polymer separating media. The peaks were analyzed with either GeneScan® Software or Peak Scanner™ software, both from Applied Biosystems.
# [2] = target: T1, Klenow enzyme (Escherichia coli, UniProt P00582); test: Polymerase extension of FAM labeled primer over (AAG)14 template; format: biochemical; conditions: for extension over (AAG)14 template (electropherogram): FIG. 12, with dCTP, FAM labeled primer
# T1 construct: Klenow enzyme at 37° C. for 1 minute
# Description: In order to determine if a polymerase would continue to extend an unnatural DNA (i.e., a DNA including moieties not present in natural DNA) comprising residues having amino groups, an experiment was designed using aminopropargyl-dUTP (deoxyuridine triphosphate) and dCTP (deoxycytidine triphosphate) which yields extended DNA having residues with terminal amino functional groups on the incorporated dUTP moieties. The dUTP used is represented by the formula: […]
# The experiment was conducted using an FAM (i.e., 6-carboxyfluorescein) labeled primer over an (AAG)14 [SEQ ID NO: 1] template.
# These substrates were tested against the same template/primer system used in the experiments shown in FIGS. 12A and 12B {i.e., Klenow enzyme at 37° C. for 1 minute over an (AAG)14 [SEQ ID NO: 1] template}. The concentration of the nucleotides for this experiment was 5 μM. The results of this experiment are summarized in the electropherogram of FIG. 13C.
# Similar experiments were conducted over the same template for natural dCTP/dTTP, with results shown in the electropherogram of FIG. 13A, and the methylpropynyl analogs of these substrates, with results shown in the electropherogram of FIG. 13B.
# [3] = 5 μM substrate, after 30 minutes
# T1 sequence (P00582 324-928): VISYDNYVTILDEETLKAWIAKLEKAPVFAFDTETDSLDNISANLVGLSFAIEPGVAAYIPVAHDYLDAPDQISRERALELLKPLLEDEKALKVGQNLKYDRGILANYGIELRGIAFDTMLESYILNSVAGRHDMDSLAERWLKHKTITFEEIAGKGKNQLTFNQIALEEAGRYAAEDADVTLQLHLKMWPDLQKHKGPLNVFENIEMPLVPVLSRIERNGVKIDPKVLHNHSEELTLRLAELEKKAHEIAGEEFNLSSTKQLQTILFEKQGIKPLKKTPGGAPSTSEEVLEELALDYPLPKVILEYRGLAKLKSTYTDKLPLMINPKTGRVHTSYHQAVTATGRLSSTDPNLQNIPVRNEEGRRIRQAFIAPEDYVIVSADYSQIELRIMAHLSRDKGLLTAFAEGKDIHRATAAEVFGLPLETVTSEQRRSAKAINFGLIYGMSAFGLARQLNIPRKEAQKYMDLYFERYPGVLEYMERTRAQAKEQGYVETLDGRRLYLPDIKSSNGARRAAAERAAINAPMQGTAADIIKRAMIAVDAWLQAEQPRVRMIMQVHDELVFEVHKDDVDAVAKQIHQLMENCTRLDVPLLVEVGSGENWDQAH
compound,measurement,setting,value
γ-methyl-dUTP [compound 26],termination properties (overall),[1],excellent termination properties
same,extension to the first correct base / consumption of the primer,[1],almost complete consumption of the primer
same,extension to the first correct base / consumption of the primer,[1]; listed as drawing 12,almost complete
same,further incorporation over the 2nd correct base (template 2),[1],No further incorporation is observed
same,further incorporation over the 2nd correct base (template 2),[1]; listed as drawing 12,no observable incorporation
same,incorporation into the AA template,"[1]; FIG. 22B, 10 minutes, 1 μM, Mg2+",is incorporated into the AA template
same,mis-incorporation over the dG or dT in the GA and TA templates,"[1]; FIG. 22C-D, 10 minutes, 1 μM, Mg2+",is not mis-incorporated
"Nc1ncnc2c1ncn2[C@H]1C[C@H](O)[C@@H](COP(=O)(O)OP(=O)(O)OP(=O)(O)OCc2ccccc2)O1 [compound 27, γ-benzyl-dATP]",termination properties (overall),[1],excellent termination properties
same,extension to the first correct base / consumption of the primer,[1],almost complete consumption of the primer
same,further incorporation over the 2nd correct base (template 2),[1],no further incorporation is observed
"C[n+]1ccn(CCOP(=O)(O)OP(=O)(O)OP(=O)(O)OC[C@H]2O[C@@H](n3cnc4c(=O)[nH]c(N)nc43)C[C@@H]2O)c1 [compound 29, γ-(2-(N-(3-methylimidazolium))-ethyl)-dGTP]",activity,[1],quite low
same,incorporation,[1]; after 1 hr.,significant incorporation
same,mis-incorporation,[1]; after 1 hr.,no mis-incorporation is observed
same,consumption of the primer,"[1]; 4 μM substrate, after 1 hr.",completely consumed
same,extension past the first base on the CC template,"[1]; 4 μM substrate, after 1 hr.",only a trace of extension
methylpropynyl dUTP,extension over (AAG)14 template (electropherogram),[2]; 42 base target template,extension to a single product
"C[n+]1ccn(CCOP(=O)(O)OP(=O)(O)OP(=O)(O)OCC2OC(n3ccc(N)nc3=O)CC2O)c1 (stereo not drawn) [compound 28, γ-(2-(N-(3-methylimidazolium))-ethyl)-dCTP]",activity,[1],quite low
same,incorporation,[1]; after 1 hr.,significant incorporation
same,mis-incorporation,[1]; after 1 hr.,no mis-incorporation is observed
same,consumption of the primer,[1]; [3],completely consumed
same,extension past the first base on the GG template,[1]; [3],only a trace of extension
NCC#Cc1cn([C@H]2C[C@H](O)[C@@H](COP(=O)(O)OP(=O)(O)OP(=O)(O)O)O2)c(=O)[nH]c1=O [aminopropargyl-dUTP],extension over (AAG)14 template (electropherogram),[2]; 42 base target template,poor extension
same,extent of extension over the template,"[2]; FIG. 12B, 42 base target template",≤ 14 bases
CC#CCNC(=O)CO,synthesis of the extension product over (AAG)14 template,"[2]; FIG. 13, Klenow enzyme at 37° C. for 1 minute, nucleotides 5 μM",excellent synthesis of the extension product
